Experimental data as given in US20070093520A1, “Method of treatment of diarrhea-predominant irritable bowel syndrome in a subject” (priority 2005, published 2007).

System: diarrhea-predominant IBS subjects
Assay: 3007 Study: open-label 52-week safety study, adverse events and withdrawals
[1] = Cilansetron 2 mg/Cilansetron 2 mg
[2] = Cilansetron 2 mg/Cilansetron 2 mg, N=257
[3] = Cilansetron 2 mg/Cilansetron 2 mg, N=257, % of appropriate gender
[4] = Cilansetron 2 mg/Cilansetron 2 mg, gender-specific

Structure (SMILES): Cc1nccn1C[C@H]1CCc2c(c3cccc4c3n2CCC4)C1=O [cilansetron, (R)-(−)-4,5,6,8,9,10-hexahydro-10-[(2-methyl-1H-imidazol-1-yl)methyl]-11H-pyrido-[3,2,1-jk]-carbazol-11-one]
- TEAE: Upper Limb Fractures and Dislocations [1]: 0 n (%)
- TEAE: Upper Respiratory Tract Infection NOS [1]: 18 (7%) n (%)
- TEAE: Upper Respiratory Tract Infections - Pathogen Class Unspecified [1]: 42 (16%) n (%)
- TEAE: Urinalysis NEC [1]: 10 (4%) n (%)
- TEAE: Urinary Tract Infection NOS [1]: 16 (6%) n (%)
- TEAE: Urinary Tract Infections [1]: 17 (7%) n (%)
- TEAE: Urine Analysis Abnormal NOS [1]: 1 (<1%) n (%)
- TEAE: Urine Bilirubin Increased [1]: 0 n (%)
- TEAE: Urine Ketone Body Present [1]: 3 (1%) n (%)
- TEAE: Urine Leukocyte Esterase Positive [1]: 3 (1%) n (%)
- TEAE: Urobilin Urine Present [1]: 1 (<1%) n (%)
- TEAE: Vascular Auscultatory Investigations [1]: 0 n (%)
- TEAE: Vascular Tests NEC (Incl Blood Pressure) [1]: 3 (1%) n (%)
- TEAE: Vasovagal Attack [1]: 1 (<1%) n (%)
- TEAE: Viral Infection NOS [1]: 2 (<1%) n (%)
- TEAE: Viral Infections NEC [1]: 7 (3%) n (%)
- TEAE: Vomiting NOS [1]: 9 (4%) n (%)
- TEAE: Weight Decreased [1]: 1 (<1%) n (%)
- TEAE: Weight Increased [1]: 6 (2%) n (%)
- TEAE: White Blood Cell Analyses [1]: 4 (2%) n (%)
- TEAE: White Blood Cell Count Decreased [1]: 1 (<1%) n (%)
- TEAE: White Blood Cells Urine Positive [1]: 1 (<1%) n (%)
- TEAE leading to permanent discontinuation: Abdominal Distension [2]: 2 (<1%) n (%)
- TEAE leading to permanent discontinuation: Abdominal Pain Aggravated [2]: 1 (<1%) n (%)
- TEAE leading to permanent discontinuation: Abdominal Pain Lower [2]: 0 n (%)
- TEAE leading to permanent discontinuation: Abdominal Pain NOS [2]: 5 (2%) n (%)
- TEAE leading to permanent discontinuation: Abdominal Pain Upper [2]: 1 (<1%) n (%)
- TEAE leading to permanent discontinuation: Alanine Aminotransferase Increased [2]: 1 (<1%) n (%)
- TEAE leading to permanent discontinuation: Angina Pectoris [2]: 1 (<1%) n (%)
- TEAE leading to permanent discontinuation: Appendicitis [2]: 1 (<1%) n (%)
- TEAE leading to permanent discontinuation: Asthma Aggravated [2]: 1 (<1%) n (%)
- TEAE leading to permanent discontinuation: Asthma NOS [2]: 1 (<1%) n (%)
- TEAE leading to permanent discontinuation: Back Pain [2]: 3 (1%) n (%)
- TEAE leading to permanent discontinuation: Bladder Prolapse [2]: 0 n (%)
- TEAE leading to permanent discontinuation: Blood Bilirubin Increased [2]: 1 (<1%) n (%)
- TEAE leading to permanent discontinuation: Blood Pressure Increased [2]: 1 (<1%) n (%)
- TEAE leading to permanent discontinuation: Blood Urine Present [2]: 1 (<1%) n (%)
- TEAE leading to permanent discontinuation: Bone Neoplasm Malignant [2]: 1 (<1%) n (%)
- TEAE leading to permanent discontinuation: Cardiac Disorders [2]: 1 (<1%) n (%)
- TEAE leading to permanent discontinuation: Chest Discomfort [2]: 0 n (%)
- TEAE leading to permanent discontinuation: Chest Pain [2]: 0 n (%)
- TEAE leading to permanent discontinuation: Chest Wall Pain [2]: 0 n (%)
- TEAE leading to permanent discontinuation: Colitis Ischaemic [2]: 0 n (%)
- TEAE leading to permanent discontinuation: Constipation [2]: 7 (3%) n (%)
- TEAE leading to permanent discontinuation: Cough [2]: 0 n (%)
- TEAE leading to permanent discontinuation: Dehydration [2]: 1 (<1%) n (%)
- TEAE leading to permanent discontinuation: Depression [2]: 0 n (%)
- TEAE leading to permanent discontinuation: Diarrhoea Aggravated [2]: 1 (<1%) n (%)
- TEAE leading to permanent discontinuation: Diarrhoea Haemorrhagic [2]: 0 n (%)
- TEAE leading to permanent discontinuation: Diarrhoea NOS [2]: 4 (2%) n (%)
- TEAE leading to permanent discontinuation: Dizziness [2]: 0 n (%)
- TEAE leading to permanent discontinuation: Dyspepsia [2]: 1 (<1%) n (%)
- TEAE leading to permanent discontinuation: Ear and Labyrinth Disorders [2]: 1 (<1%) n (%)
- TEAE leading to permanent discontinuation: Epigastric Discomfort [2]: 0 n (%)
- TEAE leading to permanent discontinuation: Eructation [2]: 1 (<1%) n (%)
- TEAE leading to permanent discontinuation: Eye Disorders [2]: 0 n (%)
- TEAE leading to permanent discontinuation: Faecal Abnormality NOS [2]: 1 (<1%) n (%)
- TEAE leading to permanent discontinuation: Faecal Impaction [2]: 0 n (%)
- TEAE leading to permanent discontinuation: Faecal Incontinence [2]: 0 n (%)
- TEAE leading to permanent discontinuation: Faeces Hard [2]: 1 (<1%) n (%)
- TEAE leading to permanent discontinuation: Fatigue [2]: 3 (1%) n (%)
- TEAE leading to permanent discontinuation: Fibroma NOS [2]: 0 n (%)
- TEAE leading to permanent discontinuation: Flatulence [2]: 2 (<1%) n (%)
- TEAE leading to permanent discontinuation: Gastric Irritation [2]: 1 (<1%) n (%)
- TEAE leading to permanent discontinuation: Gastrointestinal Disorders [2]: 24 (9%) n (%)
- TEAE leading to permanent discontinuation: Gastrointestinal Motility Disorder NOS [2]: 0 n (%)
- TEAE leading to permanent discontinuation: General Disorders and Administration Site Conditions [2]: 3 (1%) n (%)
- TEAE leading to permanent discontinuation: Haemorrhoidal Haemorrhage [2]: 0 n (%)
- TEAE leading to permanent discontinuation: Hallucination NOS [2]: 0 n (%)
- TEAE leading to permanent discontinuation: Hallucination, Auditory [2]: 0 n (%)
- TEAE leading to permanent discontinuation: Headache NOS [2]: 1 (<1%) n (%)
- TEAE leading to permanent discontinuation: Headache NOS Aggravated [2]: 1 (<1%) n (%)
- TEAE leading to permanent discontinuation: Heart Rate Increased [2]: 1 (<1%) n (%)
- TEAE leading to permanent discontinuation: Hepatobiliary Disorders [2]: 1 (<1%) n (%)
- TEAE leading to permanent discontinuation: Hepatosplenomegaly NOS [2]: 1 (<1%) n (%)
- TEAE leading to permanent discontinuation: Hiatus Hernia [2]: 1 (<1%) n (%)
- TEAE leading to permanent discontinuation: Investigations [2]: 5 (2%) n (%)
- TEAE leading to permanent discontinuation: Irritable Bowel Syndrome Aggravated [2]: 1 (<1%) n (%)
- TEAE leading to permanent discontinuation: Lethargy [2]: 0 n (%)
- TEAE leading to permanent discontinuation: Metabolism and Nutrition Disorders [2]: 1 (<1%) n (%)
- TEAE leading to permanent discontinuation: Migraine NOS [2]: 1 (<1%) n (%)
- TEAE leading to permanent discontinuation: Muscle Cramps [2]: 2 (<1%) n (%)
- TEAE leading to permanent discontinuation: Musculoskeletal and Connective Tissue Disorders [2]: 5 (2%) n (%)
- TEAE leading to permanent discontinuation: Nausea [2]: 3 (1%) n (%)
- TEAE leading to permanent discontinuation: Neoplasms Benign, Malignant and Unspecified (Incl Cysts and Polyps) [2]: 2 (<1%) n (%)
- TEAE leading to permanent discontinuation: Nervous System Disorders [2]: 4 (2%) n (%)
- TEAE leading to permanent discontinuation: Pregnancy, Puerperium and Perinatal Conditions [2]: 1 (<1%) n (%)
- TEAE leading to permanent discontinuation: Pruritus NOS [2]: 1 (<1%) n (%)
- TEAE leading to permanent discontinuation: Psychiatric Disorders [2]: 0 n (%)
- TEAE leading to permanent discontinuation: Psychotic Disorder NOS [2]: 0 n (%)
- TEAE leading to permanent discontinuation: Rash Macular [2]: 0 n (%)
- TEAE leading to permanent discontinuation: Rash NOS [2]: 0 n (%)
- TEAE leading to permanent discontinuation: Rectal Disorder NOS [2]: 0 n (%)
- TEAE leading to permanent discontinuation: Rectal Haemorrhage [2]: 2 (<1%) n (%)
- TEAE leading to permanent discontinuation: Rectal Tenesmus [2]: 0 n (%)
- TEAE leading to permanent discontinuation: Renal and Urinary Disorders [2]: 0 n (%)
- TEAE leading to permanent discontinuation: Respiratory, Thoracic and Mediastinal Disorders [2]: 2 (<1%) n (%)
- TEAE leading to permanent discontinuation: Skin and Subcutaneous Tissue Disorders [2]: 1 (<1%) n (%)
- TEAE leading to permanent discontinuation: Somnolence [2]: 1 (<1%) n (%)
- TEAE leading to permanent discontinuation: Stomach Discomfort [2]: 0 n (%)
- TEAE leading to permanent discontinuation: Suicidal Ideation [2]: 0 n (%)
- TEAE leading to permanent discontinuation: Urticaria NOS [2]: 0 n (%)
- TEAE leading to permanent discontinuation: Vertigo [2]: 1 (<1%) n (%)
- TEAE leading to permanent discontinuation: Visual Acuity Reduced [2]: 0 n (%)
- TEAE leading to permanent discontinuation: Vomiting NOS [2]: 1 (<1%) n (%)
- TEAE leading to permanent discontinuation: White Blood Cells Urine Positive [2]: 1 (<1%) n (%)
- Total Number of Subjects with at Least One TEAE Leading to Discontinuation of Study Medication [2]: 33 (13%) n (%)
- TEAE leading to permanent discontinuation: Benign Ovarian Tumour* [3]: 0 n (%)
- TEAE leading to permanent discontinuation: Breast Cancer NOS* [3]: 0 n (%)
- TEAE leading to permanent discontinuation: Ovarian Cancer NOS* [3]: 1 (<1%) n (%)
- TEAE leading to permanent discontinuation: Ovarian Cystadenofibroma* [3]: 0 n (%)
- TEAE leading to permanent discontinuation: Pregnancy NOS* [3]: 1 (<1%) n (%)
- TEAE: Female Reproductive Tract Infections* [4]: 2 (1%) n (%)
- TEAE: Prostate Examination Abnormal* [4]: 1 (1%) n (%)
- TEAE: Smear Cervix Abnormal* [4]: 1 (<1%) n (%)
- TEAE: Vaginal Candidiasis* [4]: 1 (<1%) n (%)
- TEAE: Vaginitis Bacterial NOS* [4]: 1 (<1%) n (%)
- TEAE: Vaginitis* [4]: 1 (<1%) n (%)
- TEAE: Vaginosis Fungal NOS* [4]: 1 (<1%) n (%)
- TEAE: Abdominal Discomfort (Overall): 1 (<1%) n (%)
- TEAE: Abdominal Distension (Overall): 15 (3%) n (%)
- TEAE: Abdominal Pain Aggravated (Overall): 4 (<1%) n (%)
- TEAE: Abdominal Pain Lower (Overall): 10 (2%) n (%)
- TEAE: Abdominal Pain NOS (Overall): 35 (7%) n (%)
- TEAE: Abdominal Pain Upper (Overall): 11 (2%) n (%)
- TEAE: Abdominal Rebound Tenderness (Overall): 1 (<1%) n (%)
- TEAE: Abdominal Tenderness (Overall): 13 (2%) n (%)
- TEAE: Abdominal Therapeutic Procedures NEC (Overall): 1 (<1%) n (%)
- TEAE: Abdominoplasty (Overall): 1 (<1%) n (%)
- TEAE: Abnormal Chest Sounds NOS (Overall): 1 (<1%) n (%)
- TEAE: Abnormal Reflexes (Overall): 1 (<1%) n (%)
- TEAE: Acne NOS (Overall): 1 (<1%) n (%)
- TEAE: Acnes (Overall): 1 (<1%) n (%)
- TEAE: Acquired Hypothyroidism (Overall): 2 (<1%) n (%)
- TEAE: Acrochordons (Overall): 1 (<1%) n (%)
- TEAE: Adenomyosis* (Overall): 1 (<1%) n (%)
- TEAE: Age Related Issues (Overall): 1 (<1%) n (%)
- TEAE: Alanine Aminotransferase Increased (Overall): 14 (3%) n (%)
- TEAE: Allergic Conditions NEC (Overall): 3 (<1%) n (%)
- TEAE: Allergies to Foods, Food Additives, Drugs and Other Chemicals (Overall): 2 (<1%) n (%)
- TEAE: Allergy to Insect Sting (Overall): 1 (<1%) n (%)
- TEAE: Alopecia (Overall): 1 (<1%) n (%)
- TEAE: Alopecias (Overall): 1 (<1%) n (%)
- TEAE: Amenorrhoea NOS* (Overall): 1 (<1%) n (%)
- TEAE: Anaemia NOS (Overall): 1 (<1%) n (%)
- TEAE: Anaemias NEC (Overall): 1 (<1%) n (%)
- TEAE: Anal and Rectal Disorders NEC (Overall): 1 (<1%) n (%)
- TEAE: Anal and Rectal Pains (Overall): 4 (<1%) n (%)
- TEAE: Anal and Rectal Signs and Symptoms (Overall): 4 (<1%) n (%)
- TEAE: Angina Pectoris (Overall): 3 (<1%) n (%)
- TEAE: Animal Bite (Overall): 1 (<1%) n (%)
- TEAE: Anorexia (Overall): 2 (<1%) n (%)
- TEAE: Anxiety (Overall): 8 (1%) n (%)
- TEAE: Anxiety Aggravated (Overall): 3 (<1%) n (%)
- TEAE: Anxiety Symptoms (Overall): 12 (2%) n (%)
- TEAE: Apocrine and Eccrine Gland Disorders (Overall): 3 (<1%) n (%)
- TEAE: Appendicitis (Overall): 1 (<1%) n (%)
- TEAE: Appetite Disorders (Overall): 2 (<1%) n (%)
- TEAE: Arrhythmia NOS (Overall): 1 (<1%) n (%)
- TEAE: Arthralgia (Overall): 13 (2%) n (%)
- TEAE: Arthritis NOS (Overall): 3 (<1%) n (%)
- TEAE: Arthritis NOS Aggravated (Overall): 1 (<1%) n (%)
- TEAE: Arthropathies NEC (Overall): 6 (1%) n (%)
- TEAE: Arthropod Bite (Overall): 2 (<1%) n (%)
- TEAE: Arthropod Sting (Overall): 1 (<1%) n (%)
- TEAE: Aspartate Aminotransferase Increased (Overall): 7 (1%) n (%)
- TEAE: Asthenic Conditions (Overall): 15 (3%) n (%)
- TEAE: Asthma Aggravated (Overall): 1 (<1%) n (%)
- TEAE: Asthma NOS (Overall): 2 (<1%) n (%)
